From ChEMBL document CHEMBL3779863, “Ionic liquid-promoted one-pot synthesis of thiazoleimidazo[2,1-b][1,3,4]thiadiazole hybrids and their antitubercular activity” (Medchemcomm, 2016)
≈ marks a conversion by molar mass, not a printed value.

These compounds were tested on Mycobacterium tuberculosis (assay: Antimycobacterial activity against extensively drug resistant Mycobacterium tuberculosis H37Rv ATCC 27294 after 28 days by agar dilution method). Settings: H37Rv ATCC 27294, 672 h.
Assay type: functional

Point of comparison: `NNC(=O)c1ccncc1` [ISONIAZID], MIC 0.729 µM (≈ 0.1 µg/mL). Against it:
- Cc1nn2c(/C=N/Nc3nc(-c4ccc(F)cc4)cs3)c(-c3ccc(Cl)cc3)nc2s1 — 74-fold higher, 53.9 µM (≈ 25.3 µg/mL)
- Cc1ccc(-c2nc3sc(C)nn3c2/C=N/Nc2nc(-c3ccc(Cl)cc3)cs2)cc1 — 74-fold higher, 53.9 µM (≈ 25 µg/mL)
- Cc1ccc(-c2csc(N/N=C/c3c(-c4ccc(C)cc4)nc4sc(C)nn34)n2)cc1 — 77-fold higher, 56.3 µM (≈ 25 µg/mL)
- COc1ccc(-c2csc(N/N=C/c3c(-c4ccc(OC)cc4)nc4sc(C(F)(F)F)nn34)n2)cc1 — 130-fold higher, 94.3 µM (≈ 50 µg/mL)
- COc1ccc(-c2csc(N/N=C/c3c(-c4ccc(C)cc4)nc4sc(C)nn34)n2)cc1 — 150-fold higher, 109 µM (≈ 50 µg/mL)
- Fc1ccc(-c2csc(N/N=C/c3c(-c4ccc(Cl)cc4)nc4sc(C(F)(F)F)nn34)n2)cc1 — 16-fold higher, 12 µM (≈ 6.26 µg/mL)
- Cc1ccc(-c2csc(N/N=C/c3c(-c4ccc(Cl)cc4)nc4sc(C)nn34)n2)cc1 — 150-fold higher, 108 µM (≈ 50.1 µg/mL)
- COc1ccc(-c2nc3sc(C(F)(F)F)nn3c2/C=N/Nc2nc(-c3ccc(C)cc3)cs2)cc1 — 33-fold higher, 24.1 µM (≈ 12.4 µg/mL)
- COc1ccc(-c2nc3sc(C(F)(F)F)nn3c2/C=N/Nc2nc(-c3ccc(F)cc3)cs2)cc1 — 33-fold higher, 24.1 µM (≈ 12.5 µg/mL)
- Cc1ccc(-c2nc3sc(C)nn3c2/C=N/Nc2nc(-c3ccc(F)cc3)cs2)cc1 — 19-fold higher, 13.9 µM (≈ 6.25 µg/mL)
- COc1ccc(-c2nc3sc(C)nn3c2/C=N/Nc2nc(-c3ccc([N+](=O)[O-])cc3)cs2)cc1 — 17-fold higher, 12.7 µM (≈ 6.25 µg/mL)
- COc1ccc(-c2nc3sc(C)nn3c2/C=N/Nc2nc(-c3ccc(C)cc3)cs2)cc1 — 150-fold higher, 109 µM (≈ 50 µg/mL)
- Cc1ccc(-c2nc3sc(C)nn3c2/C=N/Nc2nc(-c3ccc([N+](=O)[O-])cc3)cs2)cc1 — 36-fold higher, 26.3 µM (≈ 12.5 µg/mL)
- O=[N+]([O-])c1ccc(-c2csc(N/N=C/c3c(-c4ccc(Cl)cc4)nc4sc(C(F)(F)F)nn34)n2)cc1 — 120-fold higher, 91.1 µM (≈ 50.1 µg/mL)
- COc1ccc(-c2csc(N/N=C/c3c(-c4ccc(OC)cc4)nc4sc(C)nn34)n2)cc1 — 140-fold higher, 105 µM (≈ 50 µg/mL)
- COc1ccc(-c2nc3sc(C)nn3c2/C=N/Nc2nc(-c3ccc(F)cc3)cs2)cc1 — 150-fold higher, 108 µM (≈ 50 µg/mL)
- COc1ccc(-c2csc(N/N=C/c3c(-c4ccc(Cl)cc4)nc4sc(C)nn34)n2)cc1 — 71-fold higher, 52.1 µM (≈ 25 µg/mL)
- FC(F)(F)c1nn2c(/C=N/Nc3nc(-c4ccc(Cl)cc4)cs3)c(-c3ccc(Cl)cc3)nc2s1 — 130-fold higher, 92.9 µM (≈ 50.1 µg/mL)
- COc1ccc(-c2nc3sc(C(F)(F)F)nn3c2/C=N/Nc2nc(-c3ccc(Cl)cc3)cs2)cc1 — 130-fold higher, 93.6 µM (≈ 50.1 µg/mL)
- Cc1nn2c(/C=N/Nc3nc(-c4ccc(Cl)cc4)cs3)c(-c3ccc(Cl)cc3)nc2s1 — 140-fold higher, 103 µM (≈ 50 µg/mL)
- COc1ccc(-c2csc(N/N=C/c3c(-c4ccc(Cl)cc4)nc4sc(C(F)(F)F)nn34)n2)cc1 — 16-fold higher, 11.7 µM (≈ 6.26 µg/mL)
- Cc1ccc(-c2csc(N/N=C/c3c(-c4ccc(Cl)cc4)nc4sc(C(F)(F)F)nn34)n2)cc1 — 8.3-fold higher, 6.03 µM (≈ 3.13 µg/mL)
- COc1ccc(-c2nc3sc(C)nn3c2/C=N/Nc2nc(-c3ccc(Cl)cc3)cs2)cc1 — 36-fold higher, 26 µM (≈ 12.5 µg/mL)
- O=C(O)c1cn(C2CC2)c2cc(N3CCNCC3)c(F)cc2c1=O [CIPROFLOXACIN] — 13-fold higher, 9.44 µM (≈ 3.13 µg/mL)
- CC[C@@H](CO)NCCN[C@@H](CC)CO [ETHAMBUTOL] — 21-fold higher, 15.3 µM (≈ 3.13 µg/mL)
